Test: xn = mol fraction of the nth substance listed

CCCC(=O)[O-].[NH3+]CCO + O
viscosity [mPa·s], 101 kPa
Settings	x1 = 0.0063	x1 = 0.0132	x2 = 0.8927	x2 = 0.9254	x2 = 0.9508	x2 = 0.9707	x2 = 0.9793
293.15 K	1.38	1.662	9.498	5.73	3.702	2.46	1.98
298.15 K	1.248	1.476	7.89	4.836	3.21	2.145	1.776
303.15 K	1.104	1.32	6.6	4.182	2.814	1.878	1.59

CC(=O)OCCC(C)C + ClC(Cl)(Cl)Cl
303.15 K, 101.3 kPa
Settings	viscosity [mPa·s]
x1 = 0.1037	0.8143
x1 = 0.1985	0.8011
x1 = 0.302	0.7904
x1 = 0.4018	0.7782
x1 = 0.5027	0.7656
x1 = 0.603	0.7549
x1 = 0.7015	0.7451
x1 = 0.7985	0.7325
x1 = 0.9013	0.7155

N[C@@H](Cc1c[nH]c2ccccc12)C(=O)O + O
303 K, 100 kPa
Settings	viscosity [mPa·s]
x1 = 0.087	0.934
x1 = 0.0954	1
x1 = 0.0971	1.018
x1 = 0.0979	1.055
x1 = 0.0983	1.077
x1 = 0.0985	1.101

CC(=O)OCCC(C)C + Cc1cccc(C)c1
viscosity [mPa·s], 101 kPa
Settings	298.15 K	308.15 K
x1 = 0.0471	0.58	0.529
x1 = 0.1507	0.583	0.538
x1 = 0.286	0.593	0.555
x1 = 0.3495	0.599	0.564
x1 = 0.4475	0.614	0.582
x1 = 0.5021	0.625	0.594
x1 = 0.5481	0.634	0.604
x1 = 0.6499	0.659	0.63
x1 = 0.7526	0.69	0.66
x1 = 0.8535	0.724	0.693
x1 = 0.942	0.757	0.725

O=P(O)(O)O + CCCCCCCCO
viscosity [mPa·s], 101 kPa
Settings	x1 = 0.0266	x1 = 0.0485	x1 = 0.0865	x1 = 0.1055	x1 = 0.149	x1 = 0.1867	x1 = 0.2054	x1 = 0.2487	x1 = 0.2753	x1 = 0.3073
293.15 K	10.8	11.16	14.06	15.07	19.85	30.76	35.99	40.67	45.65	48.76
303.15 K	6.465	7.085	8.327	9.414	11.8	15.79	17.99	21.76	25.77	28
313.15 K	4.823	5.02	5.655	6.55	7.186	8.765	9.786	11.34	14.18	15.19
323.15 K	3.614	3.765	3.995	4.223	4.716	5.176	5.564	6.076	6.308	6.896

CC(=O)OCCC(C)C + Cc1ccc(C)cc1
viscosity [mPa·s], 101 kPa
Settings	298.15 K	308.15 K
x1 = 0.0453	0.615	0.54
x1 = 0.1495	0.617	0.55
x1 = 0.2436	0.622	0.561
x1 = 0.3501	0.632	0.576
x1 = 0.4497	0.644	0.594
x1 = 0.4974	0.651	0.603
x1 = 0.5484	0.659	0.613
x1 = 0.6458	0.678	0.636
x1 = 0.7503	0.702	0.663
x1 = 0.8492	0.73	0.693
x1 = 0.9411	0.76	0.725

CC(=O)OCCC(C)C + ClC(Cl)Cl
303.15 K, 101.3 kPa
Settings	viscosity [mPa·s]
x1 = 0.1037	0.5821
x1 = 0.2076	0.6427
x1 = 0.301	0.6846
x1 = 0.3983	0.7145
x1 = 0.5044	0.7309
x1 = 0.6009	0.7377
x1 = 0.6966	0.7338
x1 = 0.8058	0.7252
x1 = 0.8911	0.7143

CCCOCC(C)OCC(C)O (stereo not given) + CCCCCO
298.15 K, 101 kPa
Settings	viscosity [mPa·s]
x1 = 0.0566	3.194
x1 = 0.1564	3.499
x1 = 0.2104	3.49
x1 = 0.2577	3.486
x1 = 0.3103	3.484
x1 = 0.3524	3.483
x1 = 0.4027	3.481
x1 = 0.4592	3.494
x1 = 0.5107	3.516
x1 = 0.5585	3.545
x1 = 0.6219	3.59
x1 = 0.6862	3.64
x1 = 0.7322	3.684
x1 = 0.7995	3.733
x1 = 0.9032	3.807
x1 = 0.9629	3.849
x2 = 0.0139	3.867

CC(=O)OCCC(C)C + C1CCCCC1
viscosity [mPa·s], 101 kPa
Settings	298.15 K	308.15 K
x1 = 0.0292	0.862	0.73
x1 = 0.0895	0.813	0.686
x1 = 0.1448	0.776	0.653
x1 = 0.2104	0.74	0.621
x1 = 0.3069	0.7	0.587
x1 = 0.3512	0.687	0.577
x1 = 0.3964	0.676	0.569
x1 = 0.4958	0.661	0.561
x1 = 0.6222	0.661	0.57
x1 = 0.753	0.682	0.603
x1 = 0.9257	0.747	0.69

CCCOCC(C)OCC(C)O (stereo not given) + CCCCCCCO
298.15 K, 101 kPa
Settings	viscosity [mPa·s]
x1 = 0.0145	5.795
x1 = 0.0297	5.725
x1 = 0.072	5.58
x1 = 0.1172	5.426
x1 = 0.1578	5.332
x1 = 0.2004	5.236
x1 = 0.2276	5.185
x1 = 0.2594	5.134
x1 = 0.3052	5.067
x1 = 0.4171	4.913
x1 = 0.4502	4.864
x1 = 0.5104	4.775
x1 = 0.5572	4.699
x1 = 0.6014	4.616
x1 = 0.6573	4.51
x1 = 0.7008	4.419
x1 = 0.7589	4.295
x1 = 0.8	4.207
x1 = 0.8512	4.098
x1 = 0.9118	3.985
x1 = 0.9578	3.916
x2 = 0.009	3.879
x2 = 0.0121	3.88

CC(=O)OCCC(C)C + O=[N+]([O-])c1ccccc1
viscosity [mPa·s], 101 kPa
Settings	298.15 K	308.15 K
x1 = 0.0448	1.721	1.488
x1 = 0.1512	1.567	1.367
x1 = 0.249	1.439	1.267
x1 = 0.3494	1.321	1.174
x1 = 0.4412	1.222	1.096
x1 = 0.5	1.164	1.05
x1 = 0.5486	1.118	1.014
x1 = 0.6489	1.03	0.945
x1 = 0.7486	0.951	0.882
x1 = 0.8513	0.876	0.823
x1 = 0.9464	0.814	0.773

CC(=O)Nc1ccccc1 + CO
viscosity [mPa·s], 101 kPa
Settings	298.15 K	303.15 K	308.15 K	313.15 K
x1 = 0.08868	0.9964	0.918	0.8461	0.7805
x1 = 0.1132	1.158	1.057	0.9716	0.886

CCCCCCCC/C=C\CCCCCCCC(=O)OCC + CCCO
Settings	viscosity [mPa·s]
303.15 K, 101 kPa, x2 = 0.2	4.435

CC(=O)OCCC(C)C + c1ccccc1
viscosity [mPa·s], 101 kPa
Settings	298.15 K	308.15 K
x1 = 0.0442	0.606	0.532
x1 = 0.1509	0.614	0.547
x1 = 0.2507	0.623	0.563
x1 = 0.3514	0.635	0.58
x1 = 0.4526	0.65	0.6
x1 = 0.4814	0.655	0.606
x1 = 0.5508	0.667	0.621
x1 = 0.6491	0.686	0.644
x1 = 0.7484	0.709	0.67
x1 = 0.8475	0.735	0.698
x1 = 0.9443	0.763	0.728

CC(=O)O.OCCNCCO + O
viscosity [mPa·s], 100 kPa
Settings	x1 = 0.0126	x2 = 0.1586	x2 = 0.2897	x2 = 0.4528	x2 = 0.5293	x2 = 0.6932	x2 = 0.8573	x2 = 0.9194	x2 = 0.9549
293.15 K	1.37	3625	2208	1042	658.3	162.6	19.25	6.362	3.027
303.15 K	1.099	1492	946.1	473.9	310.7	87.19	12.67	4.584	2.301
313.15 K	0.9188	686.5	452	239.3	162.4	51.05	8.836	3.442	1.818
323.15 K	0.7821	346.1	236.3	131.8	92.22	32.12	6.455	2.69	1.484

— the CheMixHub viscosity set
